# Laboratory results taken from patent publication US20210052492A1, “Cannabinoid Dosing Regime For Psoriasis” (Botanix Pharmaceuticals Ltd., priority 2018, published 2021).
# Experiment: Skin permeation of CBD in a Franz-type diffusion cell
# Format: in vitro ADME
# Details: 5 ul of 5.0% w/w CBD formulation, 48-hour exposure
# Procedure: Dermatomed skin from a single donor was mounted in a Franz-type diffusion cell (0.55 cm^2 receptor fluid exposure surface area) and dosed with 5 ul of CBD formulated in an mixture of a volatile solvent (hexylmethyldisiloxane/polymethylsiloxane—93% w/w), and residual solvent (arlamol E—2% w/w) at a concentration of 5.0% (w/w; 35.5 mg/ml). Following dosing, receptor phase samples were collected at 4, 10, 24 and 48 hours; after which the study was terminated.
# The residual formulation was removed by tape stripping and the epidermis and dermis separated by blunt dissection. The levels of CBD in the epidermis, dermis, and receptor fluid samples were then analyzed using a bioanalytical method with LC-MS/MS detection.
smiles,measurement,value
"C=C(C)C1CCC(C)=CC1c1c(O)cc(CCCCC)cc1O (centres unmarked) [CBD, 2-[3-methyl-6-(1-methylethenyl)-2-cyclohexen-1-yl]-5-pentyl-1,3-benzenediol]","skin permeation through to the receptor phase, % of applied dose",less than 0.081%
same,"skin permeation, amount in the receptor phase",< 278 ng/cm^2
